# Molecular target: Muscarinic acetylcholine receptor
# Assay: Binding affinity to muscarinic acetylcholine receptor was determined in presence of [3H]QNB radioligand (in vitro)
# Type: protein assay
row,Compound,Ki
1,CC(C#CCN1CCCC1)N1CCCC1=O (stereo unspecified),14 nM
2,Cc1cncn1CC#CCN1CCOC1=O,151 nM
3,COC(=O)N(C)CC#CCN1CCCC1,550 nM
4,Cc1c[n+](C)cn1CC#CCN1CCCC1=O.[I-],303 nM
5,CCOC(=O)N(C)C(C)C#CCn1cncc1C (stereo unspecified),568 nM
6,Cc1cncn1CC#CCn1ccn(C)c1=O,614 nM
7,COC(=O)N(C)CC#CCn1cncc1C,1001 nM
8,CCOC(=O)N(C)C(C)C#CCN1CCCC1 (stereo unspecified),110 nM
9,CC1CCC(=O)N1CC#CCN1CCCC1 (stereo unspecified),14 nM
10,CC(C#CCN(C)C)N1CCCC1=O (stereo unspecified),1702 nM
11,Cc1cncn1CC#CC(C)N1CCCC1=O (stereo unspecified),16.8 nM
12,COC(=O)NCC#CCn1cncc1C,6825 nM

# Molecular target: Muscarinic acetylcholine receptor
# Assay: Binding affinity to muscarinic acetylcholine receptor was determined in presence of [3H]OXO-M radioligand (in vitro)
# Type: protein assay
row,Compound,Ki
1,CC(C#CCN1CCCC1)N1CCCC1=O (stereo unspecified),1.1 nM
2,Cc1cncn1CC#CCN1CCOC1=O,18 nM
3,COC(=O)N(C)CC#CCN1CCCC1,2.6 nM
4,Cc1c[n+](C)cn1CC#CCN1CCCC1=O.[I-],53 nM
5,CCOC(=O)N(C)C(C)C#CCn1cncc1C (stereo unspecified),156 nM
6,Cc1cncn1CC#CCn1ccn(C)c1=O,39 nM
7,COC(=O)N(C)CC#CCn1cncc1C,36 nM
8,CCOC(=O)N(C)C(C)C#CCN1CCCC1 (stereo unspecified),22 nM
9,CC1CCC(=O)N1CC#CCN1CCCC1 (stereo unspecified),1.5 nM
10,CC(C#CCN(C)C)N1CCCC1=O (stereo unspecified),26.4 nM
11,Cc1cncn1CC#CC(C)N1CCCC1=O (stereo unspecified),5.22 nM
12,COC(=O)NCC#CCn1cncc1C,191 nM

# Molecular target: Muscarinic acetylcholine receptor (Rattus norvegicus) (UniProt P08482+P08483+P08485+P08911+P10980)
# Assay: Ratio of Ki value for QNB to that of Ki value for Oxo-M.
# Type: protein assay
row,Compound,Ki ratio
1,CC(C#CCN1CCCC1)N1CCCC1=O (stereo unspecified),13
2,Cc1cncn1CC#CCN1CCOC1=O,8.4
3,COC(=O)N(C)CC#CCN1CCCC1,211
4,Cc1c[n+](C)cn1CC#CCN1CCCC1=O.[I-],5.7
5,CCOC(=O)N(C)C(C)C#CCn1cncc1C (stereo unspecified),3.6
6,Cc1cncn1CC#CCn1ccn(C)c1=O,16
7,COC(=O)N(C)CC#CCn1cncc1C,28
8,CCOC(=O)N(C)C(C)C#CCN1CCCC1 (stereo unspecified),5
9,CC1CCC(=O)N1CC#CCN1CCCC1 (stereo unspecified),9.4
10,CC(C#CCN(C)C)N1CCCC1=O (stereo unspecified),65
11,Cc1cncn1CC#CC(C)N1CCCC1=O (stereo unspecified),3.2
12,COC(=O)NCC#CCn1cncc1C,36

# Tested on: Mus musculus
# Assay: ED50 value as cholinergic agonist by measuring salivation in mice (in vivo)
# Type: functional
row,Compound,ED50
1,CC(C#CCN1CCCC1)N1CCCC1=O (stereo unspecified),> 30 mg/kg
2,Cc1cncn1CC#CCN1CCOC1=O,> 100 mg/kg
3,COC(=O)N(C)CC#CCN1CCCC1,5.5 mg/kg
4,Cc1c[n+](C)cn1CC#CCN1CCCC1=O.[I-],> 100 mg/kg
5,CCOC(=O)N(C)C(C)C#CCn1cncc1C (stereo unspecified),> 100 mg/kg
6,CCOC(=O)N(C)C(C)C#CCN1CCCC1 (stereo unspecified),> 100 mg/kg
7,CC1CCC(=O)N1CC#CCN1CCCC1 (stereo unspecified),> 30 mg/kg
8,CC(C#CCN(C)C)N1CCCC1=O (stereo unspecified),6.6 mg/kg
9,Cc1cncn1CC#CC(C)N1CCCC1=O (stereo unspecified),> 100 mg/kg
10,COC(=O)NCC#CCn1cncc1C,> 100 mg/kg

# Tested on: Mus musculus
# Assay: ED50 value determined as oxotremorine antagonism by measuring lacrimation in mice (in vivo)
# Type: functional
row,Compound,ED50
1,CC(C#CCN1CCCC1)N1CCCC1=O (stereo unspecified),0.55 mg/kg
2,Cc1cncn1CC#CCN1CCOC1=O,37 mg/kg
3,COC(=O)N(C)CC#CCN1CCCC1,> 10 mg/kg
4,Cc1c[n+](C)cn1CC#CCN1CCCC1=O.[I-],9.7 mg/kg
5,CCOC(=O)N(C)C(C)C#CCn1cncc1C (stereo unspecified),9.7 mg/kg
6,Cc1cncn1CC#CCn1ccn(C)c1=O,8 mg/kg
7,COC(=O)N(C)CC#CCn1cncc1C,3 mg/kg
8,CCOC(=O)N(C)C(C)C#CCN1CCCC1 (stereo unspecified),97 mg/kg
9,CC1CCC(=O)N1CC#CCN1CCCC1 (stereo unspecified),0.55 mg/kg
10,CC(C#CCN(C)C)N1CCCC1=O (stereo unspecified),> 100 mg/kg
11,Cc1cncn1CC#CC(C)N1CCCC1=O (stereo unspecified),0.45 mg/kg
12,COC(=O)NCC#CCn1cncc1C,66 mg/kg

# Tested on: Mus musculus
# Assay: ED50 value determined as oxotremorine antagonism by measuring tremors in mice (in vivo)
# Type: functional
row,Compound,ED50
1,CC(C#CCN1CCCC1)N1CCCC1=O (stereo unspecified),3 mg/kg
2,Cc1cncn1CC#CCN1CCOC1=O,> 100 mg/kg
3,COC(=O)N(C)CC#CCN1CCCC1,> 10 mg/kg
4,Cc1c[n+](C)cn1CC#CCN1CCCC1=O.[I-],> 100 mg/kg
5,CCOC(=O)N(C)C(C)C#CCn1cncc1C (stereo unspecified),30 mg/kg
6,Cc1cncn1CC#CCn1ccn(C)c1=O,> 100 mg/kg
7,COC(=O)N(C)CC#CCn1cncc1C,> 100 mg/kg
8,CCOC(=O)N(C)C(C)C#CCN1CCCC1 (stereo unspecified),> 100 mg/kg
9,CC1CCC(=O)N1CC#CCN1CCCC1 (stereo unspecified),1.7 mg/kg
10,CC(C#CCN(C)C)N1CCCC1=O (stereo unspecified),> 100 mg/kg
11,Cc1cncn1CC#CC(C)N1CCCC1=O (stereo unspecified),25.4 mg/kg
12,COC(=O)NCC#CCn1cncc1C,> 100 mg/kg

# Tested on: Mus musculus
# Assay: ED50 value as cholinergic agonism by measuring lacrimation in mice (in vivo)
# Type: functional
row,Compound,ED50
1,CC(C#CCN1CCCC1)N1CCCC1=O (stereo unspecified),> 30 mg/kg
2,Cc1cncn1CC#CCN1CCOC1=O,> 100 mg/kg
3,COC(=O)N(C)CC#CCN1CCCC1,3 mg/kg
4,Cc1c[n+](C)cn1CC#CCN1CCCC1=O.[I-],> 100 mg/kg
5,CCOC(=O)N(C)C(C)C#CCn1cncc1C (stereo unspecified),> 100 mg/kg
6,Cc1cncn1CC#CCn1ccn(C)c1=O,> 100 mg/kg
7,COC(=O)N(C)CC#CCn1cncc1C,> 100 mg/kg
8,CCOC(=O)N(C)C(C)C#CCN1CCCC1 (stereo unspecified),> 100 mg/kg
9,CC1CCC(=O)N1CC#CCN1CCCC1 (stereo unspecified),> 30 mg/kg
10,CC(C#CCN(C)C)N1CCCC1=O (stereo unspecified),6.6 mg/kg
11,Cc1cncn1CC#CC(C)N1CCCC1=O (stereo unspecified),> 100 mg/kg
12,COC(=O)NCC#CCn1cncc1C,> 100 mg/kg

# Tested on: Mus musculus
# Assay: ED50 value determined as oxotremorine antagonism by measuring salivation in mice (in vivo)
# Type: functional
row,Compound,ED50
1,CC(C#CCN1CCCC1)N1CCCC1=O (stereo unspecified),0.55 mg/kg
2,Cc1cncn1CC#CCN1CCOC1=O,80 mg/kg
3,COC(=O)N(C)CC#CCN1CCCC1,> 10 mg/kg
4,Cc1c[n+](C)cn1CC#CCN1CCCC1=O.[I-],25 mg/kg
5,CCOC(=O)N(C)C(C)C#CCn1cncc1C (stereo unspecified),17.3 mg/kg
6,Cc1cncn1CC#CCn1ccn(C)c1=O,22 mg/kg
7,COC(=O)N(C)CC#CCn1cncc1C,5.4 mg/kg
8,CCOC(=O)N(C)C(C)C#CCN1CCCC1 (stereo unspecified),> 100 mg/kg
9,CC1CCC(=O)N1CC#CCN1CCCC1 (stereo unspecified),2 mg/kg
10,CC(C#CCN(C)C)N1CCCC1=O (stereo unspecified),> 100 mg/kg
11,Cc1cncn1CC#CC(C)N1CCCC1=O (stereo unspecified),2.5 mg/kg
12,COC(=O)NCC#CCn1cncc1C,80 mg/kg

# Tested on: Mus musculus
# Assay: ED50 value as cholinergic agonist by measuring tremors in mice (in vivo)
# Type: functional
row,Compound,ED50
1,CC(C#CCN1CCCC1)N1CCCC1=O (stereo unspecified),> 30 mg/kg
2,Cc1cncn1CC#CCN1CCOC1=O,30 mg/kg
3,COC(=O)N(C)CC#CCN1CCCC1,1.4 mg/kg
4,Cc1c[n+](C)cn1CC#CCN1CCCC1=O.[I-],30 mg/kg
5,CCOC(=O)N(C)C(C)C#CCn1cncc1C (stereo unspecified),> 100 mg/kg
6,Cc1cncn1CC#CCn1ccn(C)c1=O,100 mg/kg
7,COC(=O)N(C)CC#CCn1cncc1C,4.5 mg/kg
8,CCOC(=O)N(C)C(C)C#CCN1CCCC1 (stereo unspecified),> 100 mg/kg
9,CC1CCC(=O)N1CC#CCN1CCCC1 (stereo unspecified),> 30 mg/kg
10,CC(C#CCN(C)C)N1CCCC1=O (stereo unspecified),100 mg/kg
11,Cc1cncn1CC#CC(C)N1CCCC1=O (stereo unspecified),> 100 mg/kg
12,COC(=O)NCC#CCn1cncc1C,> 100 mg/kg
